Literature values in patent US20250263624A1, “Environmentally friendly metal cutting oil with high load-bearing and high anti-wear properties” (Shenyang Peite Technology Co., Ltd, priority 2025, published 2025).

For `CC(C)CCCCCOC(=O)CCCCCCCCC(=O)OCCCCCC(C)C` [diisooctyl sebacate], the Water solubility is listed as “Insoluble”.
